# Where “and” joins values, the source holds several entries; their conditions need not be identical. Equal values may be shown once. Marks after values point to notes of the source that are not given here.
# Tested on: patients with advanced solid tumors
# Experiment: Treatment-related adverse events and dose-limiting toxicities, phase 1/2a trial CA011-001
# Assay type: in vivo
# Experimental: CA011-001 was an open-label study of BMS-986158 monotherapy. Part 1 of the study included a dose-escalation segment and Part 2 was a dose-expansion phase. In Part 1, escalation occurred with an initial dose of BMS-986158 and increased in prespecified increments above the previous dose level until the first occurrence of any protocol-defined dose-limiting toxicity (DLT). Overall, 3 dosing schedules were evaluated to test safety and efficacy (Supplemental Figure S1). Each patient on schedules A, B, and C was administered a single oral dose of BMS-986158 on cycle 1 day 1 (C1D1), and no additional doses were administered until cycle 2 day 1 (C2D1; ≈7 days after C1D1). Beginning on C2D1 and for each subsequent cycle, patients received treatment according to the following schedules. On schedule A, BMS-986158 was administered once daily (QD) for 5 days on and 2 days off with 0.75-, 1.25-, 2.0-, 3.0-, and 4.5-mg escalating doses. On schedule B, patients received BMS-986158 QD for 14 days on and 7 days off with 2.0- and 3.0-mg doses. On schedule C, BMS-986158 QD was given for 7 days on and 14 days off with 2.0-, 3.0-, and 4.5-mg doses. Dose escalation was guided by a modified toxicity probability interval (mTPI) design. In the mTPI design, 3 to 4 patients would be enrolled at each dose level; if a DLT was observed, an additional 3 to 4 patients would be evaluated at the same dose level, up to a total of 13 patients. If no DLTs occurred, 3 to 4 patients would be enrolled at the next dose level. The target DLT rate was 27% to determine the maximum tolerated dose (MTD). For Part 2 of this trial (the dose-expansion phase), schedule A dosing was selected based on safety, pharmacodynamics, and PK data collected in Part 1. The dosing regimen for Part 2 was 4.5 mg for 2 weeks (10 doses) followed by 3.75 mg for the remainder of treatment. However, because study CA011-001 was terminated early with 1 patient enrolled in Part 2, we have grouped this patient with the schedule A, 4.5-mg cohort in Part 1 for the remainder of this report.
# Safety was assessed as adverse events (AEs) coded by the Medical Dictionary for Regulatory Activities version 24.0 and the National Cancer Institute’s Common Terminology Criteria for Adverse Events version 4.03. In addition, AEs were classified by whether they were considered possibly or probably treatment related (TRAEs) by investigator assessment, qualified as a serious AE, or led to interruption or discontinuation of study therapy.
# All treated patients who received ≥1 dose of BMS-986158 were evaluated in the safety population. […] All treated patients with available and sufficient serum or plasma samples for the corresponding analytes were included in the PK analyses. […] ECG parameters were evaluated in a categorical analysis, and linear mixed-effects regression modeling was used to describe the quantitative relationship between ΔQTcF and time-matched serum concentrations of BMS-986158 or its metabolite at a single dose.
# Descriptive summary statistics, including means and 95% CIs, were calculated using the Clopper-Pearson method for ORR and Kaplan–Meier method for PFS and OS. During dose escalation, an mTPI design targeted a 27% DLT rate to guide escalation decisions and the MTD selection. In the dose-escalation segment, the target enrollment was up to 30 patients per schedule and 3–13 DLT-evaluable patients at a dose level, with an aim to determine the MTD. The totality of the data, including PK, pharmacodynamics, and patient overall safety, including at lower dose levels, was also used to select the RP2D.
# [1] = Schedule A (5 days on, 2 days off), n = 46
# [2] = Schedule B (14 days on, 7 days off), n = 8
# [3] = Schedule C (7 days on, 14 days off), n = 29
smiles,measurement,setting,value
Cc1nnn(C)c1-c1cnc2c3ccc(C(C)(C)O)cc3n([C@H](c3ccccc3)C3CCOCC3)c2c1 [BMS-986158],Treatment discontinuation due to a TRAE (grade 3 myocardial infarction),"1 patient, schedule A group at the 4.5-mg dose, of all patients",1.2%
same,Incidence of TRAEs,"Schedule A (5 days on, 2 days off)",72% and 71.7%
same,"Anemia (TRAE), any grade",[1],6 (13.0) n (%)
same,"Anemia (TRAE), grade ≥ 3",[1],2 (4.3) n (%)
same,"Decreased appetite (TRAE), any grade",[1],5 (10.9) n (%)
same,"Decreased appetite (TRAE), grade ≥ 3",[1],0 n (%)
same,"Diarrhea (TRAE), any grade",[1],19 (41.3) n (%)
same,"Diarrhea (TRAE), grade ≥ 3",[1],0 n (%)
same,"Discontinuations due to TRAEs, any grade",[1],1 (2.2) ^d n (%)
same,"Discontinuations due to TRAEs, grade ≥ 3",[1],1 (2.2) ^d n (%)
same,"Fatigue (TRAE), any grade",[1],8 (17.4) n (%)
same,"Fatigue (TRAE), grade ≥ 3",[1],2 (4.3) n (%)
same,"Nausea (TRAE), any grade",[1],7 (15.2) n (%)
same,"Nausea (TRAE), grade ≥ 3",[1],1 (2.2) n (%)
same,"Patients with any TRAE, any grade",[1],33 (71.7) n (%)
same,"Patients with any TRAE, grade ≥ 3",[1],19 (41.3) n (%)
same,"Serious TRAEs, any grade",[1],"3 (6.5) ^a,d n (%)"
same,"Serious TRAEs, grade ≥ 3",[1],"3 (6.5) ^a,d n (%)"
same,"Thrombocytopenia (TRAE), any grade",[1],20 (43.5) n (%)
same,"Thrombocytopenia (TRAE), grade ≥ 3",[1],16 (34.8) n (%)
same,"Vomiting (TRAE), any grade",[1],5 (10.9) n (%)
same,"Vomiting (TRAE), grade ≥ 3",[1],0 n (%)
same,DLT grade 4 thrombocytopenia,"Schedule A, 2.0 mg",1/13
same,DLT grade 4 thrombocytopenia,"Schedule A, 3.0 mg",1/10
same,DLT grade 4 thrombocytopenia,"Schedule A, 4.5 mg",2/13
same,"Serious TRAEs, incidence","Schedule A, 3 of 46 patients",6.5%
same,"Anemia (TRAE), any grade",[2],2 (25.0) n (%)
same,"Anemia (TRAE), grade ≥ 3",[2],2 (25.0) n (%)
same,"Decreased appetite (TRAE), any grade",[2],4 (50.0) n (%)
same,"Decreased appetite (TRAE), grade ≥ 3",[2],0 n (%)
same,"Diarrhea (TRAE), any grade",[2],4 (50.0) n (%)
same,"Diarrhea (TRAE), grade ≥ 3",[2],0 n (%)
same,"Discontinuations due to TRAEs, any grade",[2],0 n (%)
same,"Discontinuations due to TRAEs, grade ≥ 3",[2],0 n (%)
same,"Fatigue (TRAE), any grade",[2],4 (50) n (%)
same,"Fatigue (TRAE), grade ≥ 3",[2],1 (12.5) n (%)
same,Incidence of TRAEs,[2],100%
same,"Nausea (TRAE), any grade",[2],1 (12.5) n (%)
same,"Nausea (TRAE), grade ≥ 3",[2],1 (12.5) n (%)
same,"Patients with any TRAE, any grade",[2],8 (100.0) n (%)
same,"Patients with any TRAE, grade ≥ 3",[2],4 (50.0) n (%)
same,"Serious TRAEs, any grade",[2],2 (25.0) ^b n (%)
same,"Serious TRAEs, grade ≥ 3",[2],2 (25.0) ^b n (%)
same,"Thrombocytopenia (TRAE), any grade",[2],5 (62.5) n (%)
same,"Thrombocytopenia (TRAE), grade ≥ 3",[2],2 (25.0) n (%)
same,"Vomiting (TRAE), any grade",[2],2 (25.0) n (%)
same,"Vomiting (TRAE), grade ≥ 3",[2],1 (12.5) n (%)
same,DLT grade 4 thrombocytopenia,"Schedule B, 3.0 mg",2/4
same,"Serious TRAEs, incidence","Schedule B, 2 of 8 patients",25.0%
same,Incidence of TRAEs,"Schedule C (7 days on, 14 days off)",72% and 72.4%
same,"Anemia (TRAE), any grade",[3],4 (13.8) n (%)
same,"Anemia (TRAE), grade ≥ 3",[3],1 (3.4) n (%)
same,"Decreased appetite (TRAE), any grade",[3],3 (10.3) n (%)
same,"Decreased appetite (TRAE), grade ≥ 3",[3],0 n (%)
same,"Diarrhea (TRAE), any grade",[3],13 (44.8) n (%)
same,"Diarrhea (TRAE), grade ≥ 3",[3],0 n (%)
same,"Discontinuations due to TRAEs, any grade",[3],0 n (%)
same,"Discontinuations due to TRAEs, grade ≥ 3",[3],0 n (%)
same,"Fatigue (TRAE), any grade",[3],4 (13.8) n (%)
same,"Fatigue (TRAE), grade ≥ 3",[3],0 n (%)
same,"Nausea (TRAE), any grade",[3],6 (20.7) n (%)
same,"Nausea (TRAE), grade ≥ 3",[3],0 n (%)
same,"Patients with any TRAE, any grade",[3],21 (72.4) n (%)
same,"Patients with any TRAE, grade ≥ 3",[3],5 (17.2) n (%)
same,"Serious TRAEs, any grade",[3],0 n (%)
same,"Serious TRAEs, grade ≥ 3",[3],0 n (%)
same,"Thrombocytopenia (TRAE), any grade",[3],7 (24.1) n (%)
same,"Thrombocytopenia (TRAE), grade ≥ 3",[3],3 (10.3) n (%)
same,"Vomiting (TRAE), any grade",[3],3 (10.3) n (%)
same,"Vomiting (TRAE), grade ≥ 3",[3],1 (3.4) n (%)
same,Serious TRAEs,Schedule C cohort (n = 29),no serious TRAEs were reported
same,DLT grade 4 thrombocytopenia,"Schedule C, 4.5 mg",2/10
same,"Anemia (TRAE), any grade","Total, N = 83",12 (14.5) n (%)
same,"Anemia (TRAE), grade ≥ 3","Total, N = 83",5 (6.0) n (%)
same,"Decreased appetite (TRAE), any grade","Total, N = 83",12 (14.5) n (%)
same,"Decreased appetite (TRAE), grade ≥ 3","Total, N = 83",0 n (%)
same,"Diarrhea (TRAE), any grade","Total, N = 83",36 (43.4) n (%)
same,"Diarrhea (TRAE), grade ≥ 3","Total, N = 83",0 n (%)
same,"Discontinuations due to TRAEs, any grade","Total, N = 83",1 (1.2) ^d n (%)
same,"Discontinuations due to TRAEs, grade ≥ 3","Total, N = 83",1 (1.2) ^d n (%)
same,"Fatigue (TRAE), any grade","Total, N = 83",16 (19.3) n (%)
same,"Fatigue (TRAE), grade ≥ 3","Total, N = 83",3 (3.6) n (%)
same,"Nausea (TRAE), any grade","Total, N = 83",14 (16.9) n (%)
same,"Nausea (TRAE), grade ≥ 3","Total, N = 83",2 (2.4) n (%)
same,"Patients with any TRAE, any grade","Total, N = 83",62 (74.7) n (%)
same,"Patients with any TRAE, grade ≥ 3","Total, N = 83",28 (33.7) n (%)
same,"Serious TRAEs, any grade","Total, N = 83","5 (6.0) ^c,d n (%)"
same,"Serious TRAEs, grade ≥ 3","Total, N = 83","5 (6.0) ^c,d n (%)"
same,"Thrombocytopenia (TRAE), any grade","Total, N = 83",32 (38.6) n (%)
same,"Thrombocytopenia (TRAE), grade ≥ 3","Total, N = 83",21 (25.3) n (%)
same,"Vomiting (TRAE), any grade","Total, N = 83",10 (12.0) n (%)
same,"Vomiting (TRAE), grade ≥ 3","Total, N = 83",2 (2.4) n (%)
same,"Anemia as any-grade TRAE, incidence",all patients,14.5%
same,"Decreased appetite as any-grade TRAE, incidence",all patients,14.5%
same,"Fatigue as any-grade TRAE, incidence",all patients,19.3%
same,"Nausea as any-grade TRAE, incidence",all patients,16.9%
same,"Thrombocytopenia as grade ≥ 3 TRAE, incidence",all patients,25.3%
same,"Vomiting as any-grade TRAE, incidence",all patients,12.0%
same,"Thrombocytopenia as TRAE, incidence","all patients, any grade",39% and 38.6%
same,"Diarrhea as TRAE, incidence","all treatment schedule cohorts, 83 patients, any grade",43% and 43.4%
same,Patients who experienced DLTs,"among 83 patients, all in part 1",9
same,Patients with grade 3 nausea as a DLT,"of 4 patients, Schedule B, 2.0-mg cohort",1
same,"Serious TRAEs, incidence","overall study population, 5 of 83 patients",6%
